Test results from ChEMBL document CHEMBL1126009, “Synthesis and biological activities of fatty acid conjugates of a cyclic lactam alpha-melanotropin” (1992).

Key:
S91 [1] = test: […] potency was measured as the minimal effective dose required to elicit the response relative to alpha-MSH(1.0) by using melanoma tyrosinase bioassay; response is prolonged (+).range=10-100; format: functional, Mus musculus
lizard [2] = test: […] activity in lizard skin (10e-9 M) bioassay, compared to the half-maximal effective dose of alpha-MSH (1.0); response is prolonged (+).; format: functional
lizard [3] = test: […] activity in lizard skin (10e-9 M) bioassay, compared to the half-maximal effective dose of alpha-MSH (1.0); response is not prolonged (-).; format: functional
S91 [4] = test: […] potency was measured as the minimal effective dose required to elicit the response relative to alpha-MSH(1.0) by using melanoma tyrosinase bioassay; response is somewhat prolonged (+/-).; format: functional, Mus musculus
S91 [5] = test: […] potency was measured as the minimal effective dose required to elicit the response relative to alpha-MSH(1.0) by using melanoma tyrosinase bioassay; response is prolonged (+).range =10-100; format: functional, Mus musculus

## CCCCCC(=O)N[C@H]1CC(=O)NCCCC[C@@H](C(N)=O)NC(=O)[C@H](Cc2c[nH]c3ccccc23)NC(=O)[C@H](CCCN=C(N)N)NC(=O)[C@@H](Cc2ccccc2)NC(=O)[C@H](Cc2c[nH]cn2)NC1=O
S91 [1]
  Melanotropic potency: 100

## CCCCCCCCCCCCCC(=O)NC1CC(=O)NCCCC[C@@H](C(N)=O)NC(=O)[C@H](Cc2c[nH]c3ccccc23)NC(=O)[C@@H](CCCN=C(N)N)NC(=O)[C@H](Cc2ccccc2)NC(=O)[C@@H](Cc2c[nH]cn2)NC1=O (some centres not stated)
Lizard [2]
  Melanotropic activity: 0.01

## NC(=O)[C@@H]1CCCCNC(=O)C[C@H](N)C(=O)N[C@H](Cc2c[nH]cn2)C(=O)N[C@H](Cc2ccccc2)C(=O)N[C@H](CCCN=C(N)N)C(=O)N[C@@H](Cc2c[nH]c3ccccc23)C(=O)N1
Lizard [3]
  Melanotropic activity: 0.2

## NC(=O)[C@@H]1CCCCNC(=O)C[C@H](N)C(=O)N[C@@H](Cc2c[nH]cn2)C(=O)N[C@H](Cc2ccccc2)C(=O)N[C@@H](CCCN=C(N)N)C(=O)N[C@@H](Cc2c[nH]c3ccccc23)C(=O)N1
S91 [4]
  Melanotropic potency: 1

## CCCCCCCCCC(=O)NC1CC(=O)NCCCC[C@@H](C(N)=O)NC(=O)[C@H](Cc2c[nH]c3ccccc23)NC(=O)[C@@H](CCCN=C(N)N)NC(=O)[C@H](Cc2ccccc2)NC(=O)[C@@H](Cc2c[nH]cn2)NC1=O (some centres not stated)
Lizard [2]
  Melanotropic activity: 1

## CCCCCC(=O)N[C@H]1CC(=O)NCCCC[C@@H](C(N)=O)NC(=O)[C@H](Cc2c[nH]c3ccccc23)NC(=O)[C@@H](CCCN=C(N)N)NC(=O)[C@H](Cc2ccccc2)NC(=O)[C@@H](Cc2c[nH]cn2)NC1=O
Lizard [2]
  Melanotropic activity: 1

## CCCCCCCCCCCCCCCC(=O)N[C@H]1CC(=O)NCCCC[C@@H](C(N)=O)NC(=O)[C@H](Cc2c[nH]c3ccccc23)NC(=O)[C@H](CCCN=C(N)N)NC(=O)[C@@H](Cc2ccccc2)NC(=O)[C@H](Cc2c[nH]cn2)NC1=O
S91 [1]
  Melanotropic potency: 100

## CCCCCCCCCCCCCCCC(=O)NC1CC(=O)NCCCC[C@@H](C(N)=O)NC(=O)[C@H](Cc2c[nH]c3ccccc23)NC(=O)[C@@H](CCCN=C(N)N)NC(=O)[C@H](Cc2ccccc2)NC(=O)[C@@H](Cc2c[nH]cn2)NC1=O (some centres not stated)
Lizard [2]
  Melanotropic activity: 0.01

## CC(=O)N[C@H]1CC(=O)NCCCC[C@@H](C(N)=O)NC(=O)[C@H](Cc2c[nH]c3ccccc23)NC(=O)[C@@H](CCCN=C(N)N)NC(=O)[C@@H](Cc2ccccc2)NC(=O)[C@@H](Cc2c[nH]cn2)NC1=O
Lizard [3]
  Melanotropic activity: 1

## CCCCCCCCCCCCCC(=O)N[C@H]1CC(=O)NCCCC[C@@H](C(N)=O)NC(=O)[C@H](Cc2c[nH]c3ccccc23)NC(=O)[C@H](CCCN=C(N)N)NC(=O)[C@@H](Cc2ccccc2)NC(=O)[C@H](Cc2c[nH]cn2)NC1=O
S91 [5]
  Melanotropic potency: 100

## CC(=O)N[C@H]1CC(=O)NCCCC[C@@H](C(N)=O)NC(=O)[C@H](Cc2c[nH]c3ccccc23)NC(=O)[C@H](CCCN=C(N)N)NC(=O)[C@@H](Cc2ccccc2)NC(=O)[C@H](Cc2c[nH]cn2)NC1=O
S91 [4]
  Melanotropic potency: 1

## CCCCCCCCCC(=O)N[C@H]1CC(=O)NCCCC[C@@H](C(N)=O)NC(=O)[C@H](Cc2c[nH]c3ccccc23)NC(=O)[C@H](CCCN=C(N)N)NC(=O)[C@@H](Cc2ccccc2)NC(=O)[C@H](Cc2c[nH]cn2)NC1=O
S91 [1]
  Melanotropic potency: 100
